Inhibition of growth data for four molecules are collected here from ChEMBL document CHEMBL3045199, “Synthesis of some (E)-6-[2-(furan-2-yl)ethenyl]-1,2,4-triazin-5-ones and their biological evaluation as antitumor agents” (2013).

What all share (assay type): functional
The subject of one experiment is MCF7. Nature of the experiment: Cytotoxicity against Homo sapiens (human) MCF7 cells assessed as growth inhibition at 10 uM after 24 hr. Conditions: MCF7, 24 h, read-out: GI.
The next experiment relates to SK-MEL-2. Description: Cytotoxicity against Homo sapiens (human) SK-MEL-2 cells assessed as growth inhibition at 10 uM after 24 hr. The settings on record: SK-MEL-2, 24 h, read-out: GI.
For the next experiment, the system named is IGROV-1. Nature of the experiment: Cytotoxicity against Homo sapiens (human) IGROV1 cells assessed as growth inhibition at 10 uM after 24 hr. The settings on record: IGROV-1, 24 h, read-out: GI.
The next experiment concerns RXF 393. Description: Cytotoxicity against Homo sapiens (human) RXF393 cells assessed as growth inhibition at 10 uM after 24 hr. Conditions: RXF 393, 24 h, read-out: GI.
Another experiment deals with UO-31. Description: Cytotoxicity against Homo sapiens (human) UO31 cells assessed as growth inhibition at 10 uM after 24 hr. Conditions: UO-31, 24 h, read-out: GI.
The subject of the next experiment is T47D. Nature of the experiment: Cytotoxicity against Homo sapiens (human) T47D cells assessed as growth inhibition at 10 uM after 24 hr. Conditions: read-out: GI.
A further experiment relates to MDA-MB-468. Description: Cytotoxicity against Homo sapiens (human) MDA-MB-468 cells assessed as growth inhibition at 10 uM after 24 hr. Conditions: MDA-MB-468, 24 h, read-out: GI.
Another experiment has as its system HL-60(TB). Description: Cytotoxicity against Homo sapiens (human) HL-60(TB) cells assessed as growth inhibition at 10 uM after 24 hr. The settings on record: HL-60, 24 h, read-out: GI.
A further experiment has as its system OVCAR-8. Nature of the experiment: Cytotoxicity against Homo sapiens (human) OVCAR8 cells assessed as growth inhibition at 10 uM after 24 hr. Conditions: OVCAR-8, 24 h, read-out: GI.

As for `O=C(CSc1nc(=O)c(/C=C/c2ccco2)n[nH]1)c1ccc(Cl)cc1`, the inhibition of growth at 10 µM in the experiment on MCF7 was 80.8%; with SK-MEL-2, 42.3%; in the experiment with IGROV-1, 80.4%; in the experiment on RXF 393, 62.5%; with UO-31, 33.3%; with T47D it was 38.3%. For the same molecule, the inhibition of growth at 10 µM in the experiment on MDA-MB-468 was 57.3%.
In the case of `O=C1CC(=O)N(c2nc(=O)c(/C=C/c3ccco3)n[nH]2)N1`, the inhibition of growth at 10 µM in the experiment with HL-60(TB) came out at 54.3%.
`Nn1c(=S)[nH]nc(/C=C/c2ccco2)c1=O`: the inhibition of growth at 10 µM with MCF7 came out at 72.7%; with SK-MEL-2 it was 70.7%; in the experiment with IGROV-1, 77%; in the experiment with OVCAR-8 it was 59.1%.
For the molecule `O=c1c(/C=C/c2ccco2)n[nH]c(=S)n1/N=C/c1ccc([N+](=O)[O-])cc1`, the inhibition of growth at 10 µM in the experiment with MCF7 was 73.1%; in the experiment with SK-MEL-2, 70.3%; in the experiment on IGROV-1, 75.6%; in the experiment with OVCAR-8 it was 47.8%.
